Reference: the NIST ThermoML archive (doi:10.1021/je600554h)

Assay: xn = mol fraction of the nth substance listed
Settings: Liquid; for viscosity: 100 kPa, Capillary tube (Ostwald / Ubbelohde) method; for mass density: 1000 kPa, Vibrating tube method

COC(C)(C)C [2-methoxy-2-methylpropane] + CCCCCCC
Settings | mass density [kg/m3] | viscosity [mPa·s]
273.15 K, x1 = 0.1004 | – | 0.515
273.15 K, x1 = 0.1042 | 705.19 | –
273.15 K, x1 = 0.1998 | – | 0.507
273.15 K, x1 = 0.2146 | 710.4 | –
273.15 K, x1 = 0.3008 | – | 0.494
273.15 K, x1 = 0.3024 | 714.67 | –
273.15 K, x1 = 0.3982 | 719.73 | –
273.15 K, x1 = 0.4024 | – | 0.485
273.15 K, x1 = 0.4996 | 725.44 | –
273.15 K, x1 = 0.5007 | – | 0.476
273.15 K, x1 = 0.5875 | 730.85 | –
273.15 K, x1 = 0.5989 | – | 0.468
273.15 K, x1 = 0.6981 | – | 0.462
273.15 K, x1 = 0.6985 | 738.08 | –
273.15 K, x1 = 0.7887 | – | 0.456
273.15 K, x1 = 0.794 | 744.8 | –
273.15 K, x1 = 0.889 | 752 | –
273.15 K, x1 = 0.898 | – | 0.448
278.15 K, x1 = 0.1004 | – | 0.484
278.15 K, x1 = 0.1042 | 700.96 | –
278.15 K, x1 = 0.1998 | – | 0.474
278.15 K, x1 = 0.2146 | 706.09 | –
278.15 K, x1 = 0.3008 | – | 0.464
278.15 K, x1 = 0.3024 | 710.3 | –
278.15 K, x1 = 0.3982 | 715.27 | –
278.15 K, x1 = 0.4024 | – | 0.456
278.15 K, x1 = 0.4996 | 720.9 | –
278.15 K, x1 = 0.5007 | – | 0.448
278.15 K, x1 = 0.5875 | 726.22 | –
278.15 K, x1 = 0.5989 | – | 0.44
278.15 K, x1 = 0.6981 | – | 0.433
278.15 K, x1 = 0.6985 | 733.34 | –
278.15 K, x1 = 0.7887 | – | 0.427
278.15 K, x1 = 0.794 | 739.96 | –
278.15 K, x1 = 0.889 | 747.05 | –
278.15 K, x1 = 0.898 | – | 0.421
283.15 K, x1 = 0.1004 | – | 0.455
283.15 K, x1 = 0.1042 | 696.72 | –
283.15 K, x1 = 0.1998 | – | 0.446
283.15 K, x1 = 0.2146 | 701.76 | –
283.15 K, x1 = 0.3008 | – | 0.437
283.15 K, x1 = 0.3024 | 705.9 | –
283.15 K, x1 = 0.3982 | 710.79 | –
283.15 K, x1 = 0.4024 | – | 0.429
283.15 K, x1 = 0.4996 | 716.32 | –
283.15 K, x1 = 0.5007 | – | 0.422
283.15 K, x1 = 0.5875 | 721.55 | –
283.15 K, x1 = 0.5989 | – | 0.414
283.15 K, x1 = 0.6981 | – | 0.408
283.15 K, x1 = 0.6985 | 728.56 | –
283.15 K, x1 = 0.7887 | – | 0.403
283.15 K, x1 = 0.794 | 735.08 | –
283.15 K, x1 = 0.889 | 742.07 | –
283.15 K, x1 = 0.898 | – | 0.397
288.15 K, x1 = 0.1004 | – | 0.429
288.15 K, x1 = 0.1042 | 692.45 | –
288.15 K, x1 = 0.1998 | – | 0.421
288.15 K, x1 = 0.2146 | 697.4 | –
288.15 K, x1 = 0.3008 | – | 0.413
288.15 K, x1 = 0.3024 | 701.47 | –
288.15 K, x1 = 0.3982 | 706.28 | –
288.15 K, x1 = 0.4024 | – | 0.405
288.15 K, x1 = 0.4996 | 711.72 | –
288.15 K, x1 = 0.5007 | – | 0.398
288.15 K, x1 = 0.5875 | 716.86 | –
288.15 K, x1 = 0.5989 | – | 0.391
288.15 K, x1 = 0.6981 | – | 0.385
288.15 K, x1 = 0.6985 | 723.76 | –
288.15 K, x1 = 0.7887 | – | 0.38
288.15 K, x1 = 0.794 | 730.17 | –
288.15 K, x1 = 0.889 | 737.04 | –
288.15 K, x1 = 0.898 | – | 0.375
293.15 K, x1 = 0.1004 | – | 0.406
293.15 K, x1 = 0.1042 | 688.15 | –
293.15 K, x1 = 0.1998 | – | 0.398
293.15 K, x1 = 0.2146 | 693.02 | –
293.15 K, x1 = 0.3008 | – | 0.39
293.15 K, x1 = 0.3024 | 697.02 | –
293.15 K, x1 = 0.3982 | 701.73 | –
293.15 K, x1 = 0.4024 | – | 0.383
293.15 K, x1 = 0.4996 | 707.09 | –
293.15 K, x1 = 0.5007 | – | 0.376
293.15 K, x1 = 0.5875 | 712.13 | –
293.15 K, x1 = 0.5989 | – | 0.369
293.15 K, x1 = 0.6981 | – | 0.364
293.15 K, x1 = 0.6985 | 718.92 | –
293.15 K, x1 = 0.7887 | – | 0.359
293.15 K, x1 = 0.794 | 725.22 | –
293.15 K, x1 = 0.889 | 731.98 | –
298.15 K, x1 = 0.1004 | – | 0.384
298.15 K, x1 = 0.1042 | 683.83 | –
298.15 K, x1 = 0.1998 | – | 0.377
298.15 K, x1 = 0.2146 | 688.62 | –
298.15 K, x1 = 0.3008 | – | 0.37
298.15 K, x1 = 0.3024 | 692.54 | –
298.15 K, x1 = 0.3982 | 697.16 | –
298.15 K, x1 = 0.4024 | – | 0.363
298.15 K, x1 = 0.4996 | 702.42 | –
298.15 K, x1 = 0.5007 | – | 0.357
298.15 K, x1 = 0.5875 | 707.37 | –
298.15 K, x1 = 0.6985 | 714.04 | –
298.15 K, x1 = 0.794 | 720.23 | –
298.15 K, x1 = 0.889 | 726.87 | –
303.15 K, x1 = 0.1004 | – | 0.365
303.15 K, x1 = 0.1042 | 679.49 | –
303.15 K, x1 = 0.1998 | – | 0.358
303.15 K, x1 = 0.2146 | 684.18 | –
303.15 K, x1 = 0.3008 | – | 0.351
303.15 K, x1 = 0.3024 | 688.02 | –
303.15 K, x1 = 0.3982 | 692.55 | –
303.15 K, x1 = 0.4024 | – | 0.344
303.15 K, x1 = 0.4996 | 697.72 | –
303.15 K, x1 = 0.5875 | 702.57 | –
303.15 K, x1 = 0.6985 | 709.11 | –
303.15 K, x1 = 0.794 | 715.19 | –
303.15 K, x1 = 0.889 | 721.72 | –
308.15 K, x1 = 0.1004 | – | 0.347
308.15 K, x1 = 0.1042 | 675.12 | –
308.15 K, x1 = 0.1998 | – | 0.34
308.15 K, x1 = 0.2146 | 679.71 | –
308.15 K, x1 = 0.3024 | 683.48 | –
308.15 K, x1 = 0.3982 | 687.91 | –
308.15 K, x1 = 0.4996 | 692.98 | –
308.15 K, x1 = 0.5875 | 697.73 | –
308.15 K, x1 = 0.6985 | 704.14 | –
308.15 K, x1 = 0.794 | 710.11 | –
313.15 K, x1 = 0.1004 | – | 0.33
313.15 K, x1 = 0.1042 | 670.71 | –
313.15 K, x1 = 0.2146 | 675.19 | –
313.15 K, x1 = 0.3024 | 678.89 | –
313.15 K, x1 = 0.3982 | 683.23 | –
313.15 K, x1 = 0.4996 | 688.2 | –
313.15 K, x1 = 0.5875 | 692.85 | –
313.15 K, x1 = 0.6985 | 699.12 | –
318.15 K, x1 = 0.1042 | 666.28 | –
318.15 K, x1 = 0.2146 | 670.65 | –
318.15 K, x1 = 0.3024 | 674.26 | –
318.15 K, x1 = 0.3982 | 678.51 | –
318.15 K, x1 = 0.4996 | 683.38 | –
318.15 K, x1 = 0.5875 | 687.92 | –
323.15 K, x1 = 0.1042 | 661.8 | –
323.15 K, x1 = 0.2146 | 666.08 | –
323.15 K, x1 = 0.3024 | 669.6 | –
323.15 K, x1 = 0.3982 | 673.75 | –
323.15 K, x1 = 0.4996 | 678.5 | –
328.15 K, x1 = 0.1042 | 657.27 | –
328.15 K, x1 = 0.2146 | 661.46 | –
328.15 K, x1 = 0.3024 | 664.89 | –
328.15 K, x1 = 0.3982 | 668.93 | –
333.15 K, x1 = 0.1042 | 652.74 | –
333.15 K, x1 = 0.2146 | 656.77 | –
333.15 K, x1 = 0.3024 | 660.13 | –
338.16 K, x1 = 0.1042 | 648.13 | –
338.16 K, x1 = 0.2146 | 652.07 | –
343.16 K, x1 = 0.1042 | 643.27 | –
